Organism: Homo sapiens
Assay: Anticancer activity against human with metastatic pancreatic cancer assessed as median survival
Format: functional

`CCc1c2c(nc3ccc(OC(=O)N4CCC(N5CCCCC5)CC4)cc13)-c1cc3c(c(=O)n1C2)COC(=O)[C@]3(O)CC` was tested, and the Survival was 10.3 months.

Reference: ChEMBL document CHEMBL1146471, “Camptothecin and taxol: historic achievements in natural products research” (J Nat Prod, 2004)
